From PMC3842960, “Natural Stilbenoids Isolated from Grapevine Exhibiting Inhibitory Effects against HIV-1 Integrase and Eukaryote MOS1 Transposase In Vitro Activities” (PLoS ONE, 2013)

Assays:
Mos1 transposase (MOS1) = biological target: T1, Mos1 transposase (MOS1) (Drosophila mauritiana, UniProt Q7JQ07); assay: MOS1 in vitro ITR integration assay; assay type: biochemical, D. mauritiana; details: for inhibition of the integration step: 25 and 10 µM, molecules added after formation of MOS1-ITR complexes
T1 construct: involving the full-length Mos1 transposase (MOS1) was recently solved; made in house
Procedure: These assays were performed using pre-cleaved 3′ITRs (PC-ITR), i.e. ITRs in the configuration expected after excision. […]. Prior to annealing, the transferred strand (70-TS-PC) was 5′-end labelled using T4 polynucleotide kinase (Promega) and γ-^32P-ATP following the manufacturer's instructions. Oligonucleotides were provided by Eurofins MWG Biotech (Germany) or Eurogentec (Belgium). Reaction mixtures containing 10 mM Tris-HCl (pH 9), 50 mM NaCl, 1 mM DTT, 5% glycerol, 100 ng BSA, 100 nM of labelled PC-ITR and 100 nM MBP-MOS1 in a final volume of 20 µl were incubated at 30°C for 30 min. The pBC plasmid (which contained the cat gene, a hot-spot for Mos1 insertion) was then added to 30 ng/µL along with 5 mM MgCl2. Molecules (25 or 10 µM, as specified) or DMSO (2%) were added to the reaction mixtures along with the target DNA to estimate their effect on integration. Reactions were carried out for 3 hours at 30°C. 0.1 mg/ml proteinase K and 0.1% SDS were added to stop the reaction. DNA products were purified by phenol-chloroform extraction and ethanol precipitated using standard techniques. DNA products were resuspended in DNA loading buffer, then separated onto a 1% agarose gel in 1X TAE (Tris Acetate EDTA) buffer. The gel was dried onto a nitrocellulose membrane (Hybond N+, GE Healthcare), scanned using a Storm, and analysed with ImageQuant software. Signals were quantified using ImageQuant software. Efficiency of integration was calculated as the intensity of the integration signal divided by the intensity of free target signal plus integration signal. Each condition was tested at least twice.
The assay used for this step is similar to the HIV-1 IN concerted integration. Briefly, pre-cleaved labelled ITRs are used to form the integration complex. A super-coiled plasmid is used as target DNA. Integration events give a linear labelled plasmid, which can be detected. In these tests, the molecules are added after formation of MOS1-ITR complexes, along with a target plasmid to solely examine the integration inhibition. […] Controls correspond to assays performed without molecule but with DMSO. Reactions were performed at least twice for each selected molecule (leachianol G, leachianol F, quadrangularin A, hopeaphenol, vitisin B and pallidol) and the excision activity is shown in figure 8B .

MOS1 = biological target: T2, MOS1 (Drosophila mauritiana, UniProt Q7JQ07); assay: MOS1 in vitro activities, overall statements of the discussion; assay type: biochemical, D. mauritiana; details: for activity on MOS1: in vitro assays of MOS1 activities, discussion
T2 construct: involving the full-length Mos1 transposase (MOS1) was recently solved; made in house
Procedure: In vitro transposition reactions were performed using pBC-3T3 as both the donor DNA and the target, as previously described. Briefly, the basic transposition reaction mixtures contained 10 mM Tris-HCl (pH 9), 50 mM NaCl, 20 mM MgCl2, 0.5 mM EDTA, 5% glycerol, 5 ng/ml BSA, 600 ng pBC-3T3, and 80 nM purified MBP-MOS1 (added last) in a volume of 20 µl. Inhibitors (25 or 10 µM, as specified) or DMSO (2%) were added to the reaction mixtures before the transposase. The reactions were allowed to proceed for 30 min at 30°C. After phenol-chloroform extraction and ethanol precipitation, 10% of the reaction mixture was transformed in electro-competent JM109 E. coli (2 mm cuvette, 1.5 kV in a MicroPulser™BioRad). Appropriate dilutions of each reaction mixture were plated on LB-tetracycline (12.5 µg/ml) agar and LB-chloramphenicol (80 µg/ml) agar to score the transposition rate. The transposition rate was the number of Tet^R colonies divided by the number of Chloram^R plus Tet^R colonies. Each condition was done at least three times in independent experiments.
Basic excision reaction mixtures contained 10 mM Tris-HCl (pH 9), 50 mM NaCl, 20 mM MgCl2, 0.5 mM EDTA, 0.5 mM DTT, 100 ng BSA, 600 ng of super-coiled pBC-3T3, and 80 nM MBP-MOS1 (added last) in a volume of 20 µl. Molecules (25 or 10 µM, as specified) or DMSO (2%) were added to the reaction mixtures before the transposase. The reactions were allowed to proceed at 30°C for 30 min before 2 µl of stop solution (loading buffer) were added. The reaction mixtures were then incubated at 65°C for 10 min. Each reaction was analysed by overnight electrophoresis at 2.7 V/cm on a TAE-buffered 1% agarose gel with ethidium bromide (0.3 mg/ml). After electrophoresis, the gel was photographed on a transilluminator. ImageGauge 4.22 software (Fujifilm) was used to quantify the bands. Each condition was tested at least twice.
These assays were performed using pre-cleaved 3′ITRs (PC-ITR), i.e. ITRs in the configuration expected after excision. Double-strand ITRs were obtained by annealing equimolar amounts of 70-NTS-PN (5′[…]3′) and 70-TS-PC (5′[…]3′) single-strand oligonucleotides. Prior to annealing, the transferred strand (70-TS-PC) was 5′-end labelled using T4 polynucleotide kinase (Promega) and γ-^32P-ATP following the manufacturer's instructions. Oligonucleotides were provided by Eurofins MWG Biotech (Germany) or Eurogentec (Belgium). Reaction mixtures containing 10 mM Tris-HCl (pH 9), 50 mM NaCl, 1 mM DTT, 5% glycerol, 100 ng BSA, 100 nM of labelled PC-ITR and 100 nM MBP-MOS1 in a final volume of 20 µl were incubated at 30°C for 30 min. The pBC plasmid (which contained the cat gene, a hot-spot for Mos1 insertion) was then added to 30 ng/µL along with 5 mM MgCl2. Molecules (25 or 10 µM, as specified) or DMSO (2%) were added to the reaction mixtures along with the target DNA to estimate their effect on integration. Reactions were carried out for 3 hours at 30°C. 0.1 mg/ml proteinase K and 0.1% SDS were added to stop the reaction. DNA products were purified by phenol-chloroform extraction and ethanol precipitated using standard techniques. DNA products were resuspended in DNA loading buffer, then separated onto a 1% agarose gel in 1X TAE (Tris Acetate EDTA) buffer. The gel was dried onto a nitrocellulose membrane (Hybond N+, GE Healthcare), scanned using a Storm, and analysed with ImageQuant software. Signals were quantified using ImageQuant software. Efficiency of integration was calculated as the intensity of the integration signal divided by the intensity of free target signal plus integration signal. Each condition was tested at least twice.
All molecules were also tested in in vitro assays reproducing integration and excision reactions catalysed by MOS1. […] In contrast, E-resveratrol and E-ε-viniferin glucoside, which act more specifically on HIV-1 3′processing reaction, and E-piceid and E-pterostilbene, which is more efficient on the integration reaction, were not active on MOS1.

T2 sequence (Q7JQ07 whole entry): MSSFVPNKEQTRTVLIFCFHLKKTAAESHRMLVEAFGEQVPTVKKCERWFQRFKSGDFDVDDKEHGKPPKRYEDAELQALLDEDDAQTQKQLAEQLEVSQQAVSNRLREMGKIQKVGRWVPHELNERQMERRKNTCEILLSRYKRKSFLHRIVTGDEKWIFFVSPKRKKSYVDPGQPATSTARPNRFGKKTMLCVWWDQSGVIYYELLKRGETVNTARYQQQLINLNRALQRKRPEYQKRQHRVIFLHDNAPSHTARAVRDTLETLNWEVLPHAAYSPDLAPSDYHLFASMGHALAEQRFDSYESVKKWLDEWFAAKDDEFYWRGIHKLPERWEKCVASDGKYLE
T1 sequence (Q7JQ07 whole entry): as above

Oc1ccc([C@@H]2c3c(O)cc(O)cc3[C@H]3[C@H](c4ccc(O)cc4)c4c(O)cc(O)cc4[C@@H]23)cc1 [pallidol]
IC50 (Mos1 transposase (MOS1)): ~10 µM | inhibition of the integration step (Mos1 transposase (MOS1)): significantly inhibited | activity on MOS1 (MOS1): also active against MOS1 activities

Oc1ccc([C@@H]2c3c(O)cc(O)cc3[C@H]3c4c(cc(O)cc4C2C2c4cc(O)cc5c4[C@H](c4cc(O)cc(O)c4[C@H]2c2ccc(O)cc2)[C@@H](c2ccc(O)cc2)O5)O[C@@H]3c2ccc(O)cc2)cc1 (stereo partly shown) [hopeaphenol]
IC50 (Mos1 transposase (MOS1)): ~6.5 µM | inhibition of the integration step (Mos1 transposase (MOS1)): significantly inhibited | activity on MOS1 (MOS1): selectively active on MOS1 | IC50 (MOS1; summary of the discussion): 6 to 8 µM
